Assay results published in patent publication US20240425497A1, “Cbl-b Inhibitors and Methods of Use Thereof” (ARCUS BIOSCIENCES, INC., priority 2023, published 2024).

Assays:
[1] = target: Cbl-b (Homo sapiens (Human), UniProt Q13191); assay: Cbl-b probe displacement HTRF binding assay; settings: 0.4 nM biotinylated Cbl-b, 150 nM BODIPY probe
Experimental: The affinity with which compounds of the present disclosure bind to Cbl-b was assessed using probe displacement homologous time resolved fluorescence (HTRF) assays. The assays used a BODIPY™ conjugated probe (Example 54 from WO 2020264398) and biotinylated Cbl-b. The assays were performed in assay buffer consisting of 20 mM Hepes, 150 mM NaCl, 0.01% Triton X-100, 0.5 mM TCEP, 0.01% BSA. On the day of the assay, a 20 point, 1:2 master serial dilution of each compound was prepared in DMSO to span a final concentration range of 10 μM to 0 nM. Two hundred nanoliters of diluted compound was added to each well of a 384-well plate. Fifteen microliters of biotinylated-Cbl-b resuspended in assay buffer were added to each well and the plate incubated for 60 minutes at room temperature prior to addition of 5 μL of BODIPY™ probe in assay buffer. Final assay conditions included 0.4 nM of Cbl-b and 150 nM of BODIPY™ probe. After a further 15 minutes of incubation at room temperature, 5 μl of Streptavidin-Terbium cryptate reagent at 5-fold final concentration was added to each well of the 384-well plate. Binding of a probe to Cbl-b results in an increase of HTRF signal. HTRF signal was measured by Envision plate reader, while competition of a compound of the present disclosure with probe results in a decrease of signal. Percentage maximum activity in each test well was calculated based on DMSO (maximum activity, 0% displacement) and no protein control wells (baseline activity, 100% displacement). Binding affinity was determined from a dose response curve fitted using a standard four parameter fit equation. See Table 3 for data for compounds (Cbl-b Binding (IC50)).

[2] = test system: Jurkat cells; assay: IL-2 secretion assay in CD3/CD28-activated Jurkat cells (AlphaLISA); assay type: cell-based, human; settings: CD3/CD28 activation, 24 h
Experimental: Certain compounds were also evaluated in an IL-2 secretion assay. On the day of the assay, a 16 point, 1:2 master serial dilution of each compound was prepared in Opti-MEM to span a final concentration range of […]. Assays were set up in CORNING® tissue culture-treated 384-well microplates containing 60 nL of each dilution. Jurkat cells grown in RPMI-1640 supplemented with 10% FBS, 1% Glutamax, and 1% Pen/Strep were collected, resuspended in Opti-MEM. 50,000 cells/well and added to the compound plates. After a short spin (1200 rpm for 1 min), the plates were incubated at 37° C. for 1 hour. The cells were activated by adding 15 μL of IMMUNOCULT™ Human CD3/CD28 T Cell Activator (STEMCELL Technologies) diluted in Opti-MEM. After 24 h of incubation at 37° C., aliquots of culture supernatants were transferred to OptiPlate-384 (PerkinElmer) microplates. The level of JIL-2 secretion in the supernatants was then determined using the IL-2 (human) AiphaLISA Detection Kit (PerkinElmer) according to the manufacturer's recommendations. The AiphaLISA signal was measured using an EnVision plate reader (PerkinElmer). EC50 values were determined by fitting the data to a standard 4-parameter logistic equation. See Table 3 for data for select compounds (IL-2 Secretion (EC50)).

Sequence of Cbl-b (Q13191 whole entry, species assumed): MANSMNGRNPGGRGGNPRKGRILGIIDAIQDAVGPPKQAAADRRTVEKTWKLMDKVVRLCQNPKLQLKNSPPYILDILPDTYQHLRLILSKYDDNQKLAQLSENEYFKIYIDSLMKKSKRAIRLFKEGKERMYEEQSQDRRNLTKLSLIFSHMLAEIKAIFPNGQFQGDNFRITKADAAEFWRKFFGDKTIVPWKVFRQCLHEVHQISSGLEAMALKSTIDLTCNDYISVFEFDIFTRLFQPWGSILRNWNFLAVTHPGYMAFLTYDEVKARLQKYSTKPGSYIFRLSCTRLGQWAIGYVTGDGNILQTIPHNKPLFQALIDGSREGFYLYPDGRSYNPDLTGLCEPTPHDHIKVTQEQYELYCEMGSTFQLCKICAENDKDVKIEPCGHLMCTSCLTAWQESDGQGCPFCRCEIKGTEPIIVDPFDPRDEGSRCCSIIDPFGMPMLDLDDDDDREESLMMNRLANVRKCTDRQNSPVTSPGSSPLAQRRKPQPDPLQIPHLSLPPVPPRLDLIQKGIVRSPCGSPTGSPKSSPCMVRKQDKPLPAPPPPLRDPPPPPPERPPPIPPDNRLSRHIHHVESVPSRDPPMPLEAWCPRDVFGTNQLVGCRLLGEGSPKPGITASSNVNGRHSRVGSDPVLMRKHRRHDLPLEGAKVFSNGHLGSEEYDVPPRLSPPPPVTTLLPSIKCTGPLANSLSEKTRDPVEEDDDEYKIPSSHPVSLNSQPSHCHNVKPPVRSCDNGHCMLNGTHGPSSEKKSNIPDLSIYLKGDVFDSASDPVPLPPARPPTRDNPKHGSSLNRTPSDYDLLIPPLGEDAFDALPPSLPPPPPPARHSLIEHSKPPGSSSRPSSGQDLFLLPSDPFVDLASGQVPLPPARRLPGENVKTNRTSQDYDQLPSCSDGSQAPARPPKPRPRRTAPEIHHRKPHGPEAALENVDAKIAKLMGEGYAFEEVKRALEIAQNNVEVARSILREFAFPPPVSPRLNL

In the case of `O=C(c1cc(F)ccc1-c1cc(C2CC2)nc(-n2cc(C(F)(F)F)c3cc(C4COCCN4)[nH]c3c2=O)c1)N1CC(F)C1` (racemic) [Example 55, 6-[6-cyclopropyl-4-[4-fluoro-2-(3-fluoroazetidine-1-carbonyl)phenyl]pyridin-2-yl]-2-morpholin-3-yl-4-(trifluoromethyl)-1H-pyrrolo[2,3-c]pyridin-7-one], the IC50 [1] is reported as < 100 nM and the EC50 ([2]; Homo sapiens) is reported as 100 to 1000 nM.
In the case of `CN1CCOCC1c1cc2c(C(F)(F)F)cn(-c3cc(-c4ccc(F)cc4C(=O)N4CC(F)C4)cc(C4CC4)n3)c(=O)c2[nH]1` (racemic) [Example 56, 6-[6-cyclopropyl-4-[4-fluoro-2-(3-fluoroazetidine-1-carbonyl)phenyl]pyridin-2-yl]-2-(4-methylmorpholin-3-yl)-4-(trifluoromethyl)-1H-pyrrolo[2,3-c]pyridin-7-one], the IC50 [1] is reported as < 100 nM and the EC50 ([2]; Homo sapiens) is reported as 100 to 1000 nM.
With `C[C@H]1CCCN(Cc2cc3c(C4CC4)cn(-c4cc(-c5ccc(F)cc5C(=O)N(C)C)cc(C5CC5)n4)c(=O)c3[nH]2)C1` [Example 1, 2-[2-cyclopropyl-6-[4-cyclopropyl-2-[[(3S)-3-methylpiperidin-1-yl]methyl]-7-oxo-1H-pyrrolo[2,3-c]pyridin-6-yl]pyridin-4-yl]-5-fluoro-N,N-dimethylbenzamide] the IC50 [1] was < 100 nM and the EC50 ([2]; Homo sapiens) was < 100 nM.
`CCOCCNC(=O)c1cc(F)ccc1-c1cc(C2CC2)nc(-n2cc(C3CC3)c3cc(CN4CCC[C@H](C)C4)[nH]c3c2=O)c1` [Example 2, 2-[2-cyclopropyl-6-[4-cyclopropyl-2-[[(3S)-3-methylpiperidin-1-yl]methyl]-7-oxo-1H-pyrrolo[2,3-c]pyridin-6-yl]pyridin-4-yl]-N-(2-ethoxyethyl)-5-fluorobenzamide] showed an IC50 [1] of 100 to 1000 nM and an EC50 ([2]; Homo sapiens) of 1000 to 5000 nM.
In the case of `C[C@H]1CCCN(Cc2cc3c(C4CC4)cn(-c4cc(-c5ccc(F)cc5C(=O)N5CCOCC5)cc(C5CC5)n4)c(=O)c3[nH]2)C1` [Example 3, 2-{[(S)-3-methyl-1-piperidyl]methyl}-4-cyclopropyl-6-[6-cyclopropyl-4-(4-fluoro-2-morpholinocarbonylphenyl)-2-pyridyl]-1,6-dihydro-1,6-diaza-7-indenone], the IC50 [1] is reported as < 100 nM and the EC50 ([2]; Homo sapiens) is reported as 100 to 1000 nM.
With `C[C@H]1CCCN(Cc2cc3c(C4CC4)cn(-c4cc(-c5ccc(F)cc5C(=O)N5CCCC5)cc(C5CC5)n4)c(=O)c3[nH]2)C1` [Example 4, 2-{[(S)-3-methyl-1-piperidyl]methyl}-4-cyclopropyl-6-(6-cyclopropyl-4-{4-fluoro-2-[(1-pyrrolidinyl)carbonyl]phenyl}-2-pyridyl)-1,6-dihydro-1,6-diaza-7-indenone] the IC50 [1] was < 100 nM and the EC50 ([2]; Homo sapiens) was 100 to 1000 nM.
`CCN(CC)C(=O)c1cc(F)ccc1-c1cc(C2CC2)nc(-n2cc(C3CC3)c3cc(CN4CCC[C@H](C)C4)[nH]c3c2=O)c1` [Example 5, N,N-diethyl2-[2-(2-{[(S)-3-methyl-1-piperidyl]methyl}-4-cyclopropyl-7-oxo-1,6-dihydro-1,6-diaza-6-indenyl)-6-cyclopropyl-4-pyridyl]-5-fluorobenzamide] was tested, and the IC50 [1] was < 100 nM and the EC50 ([2]; Homo sapiens) was 100 to 1000 nM.
`CNC(=O)c1cc(F)ccc1-c1cc(C2CC2)nc(-n2cc(C3CC3)c3cc(CN4CCC[C@H](C)C4)[nH]c3c2=O)c1` [Example 6, N-methyl2-[2-(2-{[(S)-3-methyl-1-piperidyl]methyl}-4-cyclopropyl-7-oxo-1,6-dihydro-1,6-diaza-6-indenyl)-6-cyclopropyl-4-pyridyl]-5-fluorobenzamide] was tested, and the IC50 [1] was < 100 nM and the EC50 ([2]; Homo sapiens) was 100 to 1000 nM.
In the case of `C[C@H]1CCCN(Cc2cc3c(C4CC4)cn(-c4cc(-c5ccc(F)cc5C(=O)N5CCC5)cc(C5CC5)n4)c(=O)c3[nH]2)C1` [Example 7, 2-{[(S)-3-methyl-1-piperidyl]methyl}-6-(4-{2-[(1-azetidinyl)carbonyl]-4-fluorophenyl}-6-cyclopropyl-2-pyridyl)-4-cyclopropyl-1,6-dihydro-1,6-diaza-7-indenone], the IC50 [1] is reported as < 100 nM and the EC50 ([2]; Homo sapiens) is reported as < 100 nM.
For `C[C@H]1CCCN(Cc2cc3c(C4CC4)cn(-c4cc(-c5ccc(F)cc5C(=O)N(C)c5ccccc5)cc(C5CC5)n4)c(=O)c3[nH]2)C1` [Example 8, N-methyl-N-phenyl-2-[2-(2-{[(S)-3-methyl-1-piperidyl]methyl}-4-cyclopropyl-7-oxo-1,6-dihydro-1,6-diaza-6-indenyl)-6-cyclopropyl-4-pyridyl]-5-fluorobenzamide], the IC50 [1] was 100 to 1000 nM and the EC50 ([2]; Homo sapiens) was > 5000 nM.
With `CC1CCCN1C(=O)c1cc(F)ccc1-c1cc(C2CC2)nc(-n2cc(C3CC3)c3cc(CN4CCC[C@H](C)C4)[nH]c3c2=O)c1` (stereo partly drawn) [Example 9, 2-{[(S)-3-methyl-1-piperidyl]methyl}-4-cyclopropyl-6-(6-cyclopropyl-4-{4-fluoro-2-[(2-methyl-1-pyrrolidinyl)carbonyl]phenyl}-2-pyridyl)-1,6-dihydro-1,6-diaza-7-indenone] the IC50 [1] was < 100 nM and the EC50 ([2]; Homo sapiens) was > 5000 nM.
With `C[C@H]1CCCN(Cc2cc3c(C4CC4)cn(-c4cc(-c5ccc(F)cc5C(=O)N5CC(F)C5)cc(C5CC5)n4)c(=O)c3[nH]2)C1` [Example 10, 2-{[(S)-3-methyl-1-piperidyl]methyl}-4-cyclopropyl-6-(6-cyclopropyl-4-{4-fluoro-2-[(3-fluoro-1-azetidinyl)carbonyl]phenyl}-2-pyridyl)-1,6-dihydro-1,6-diaza-7-indenone] the IC50 [1] was < 100 nM and the EC50 ([2]; Homo sapiens) was < 100 nM.
With `COC1CN(C(=O)c2cc(F)ccc2-c2cc(C3CC3)nc(-n3cc(C4CC4)c4cc(CN5CCC[C@H](C)C5)[nH]c4c3=O)c2)C1` [Example 11, 2-{[(S)-3-methyl-1-piperidyl]methyl}-4-cyclopropyl-6-(6-cyclopropyl-4-{4-fluoro-2-[(3-methoxy-1-azetidinyl)carbonyl]phenyl}-2-pyridyl)-1,6-dihydro-1,6-diaza-7-indenone] the IC50 [1] was < 100 nM and the EC50 ([2]; Homo sapiens) was 100 to 1000 nM.
`C[C@H]1CCCN(Cc2cc3c(C4CC4)cn(-c4cc(-c5ccc(F)cc5C(=O)NCC(F)(F)F)cc(C5CC5)n4)c(=O)c3[nH]2)C1` [Example 12, N-2,2,2-trifluoroethyl2-[2-(2-{[(S)-3-methyl-1-piperidyl]methyl}-4-cyclopropyl-7-oxo-1,6-dihydro-1,6-diaza-6-indenyl)-6-cyclopropyl-4-pyridyl]-5-fluorobenzamide] gave an IC50 [1] of 100 to 1000 nM and an EC50 ([2]; Homo sapiens) of 100 to 1000 nM.
With `CCN(C)C(=O)c1cc(F)ccc1-c1cc(C2CC2)nc(-n2cc(C3CC3)c3cc(CN4CCC[C@H](C)C4)[nH]c3c2=O)c1` [Example 13, N-ethyl-N-methyl2-[2-(2-{[(S)-3-methyl-1-piperidyl]methyl}-4-cyclopropyl-7-oxo-1,6-dihydro-1,6-diaza-6-indenyl)-6-cyclopropyl-4-pyridyl]-5-fluorobenzamide] the IC50 [1] was < 100 nM and the EC50 ([2]; Homo sapiens) was 100 to 1000 nM.
`C[C@H]1CCCN(Cc2cc3c(C4CC4)cn(-c4cc(-c5ccc(F)cc5C(=O)N5CC(F)(F)C5)cc(C5CC5)n4)c(=O)c3[nH]2)C1` [Example 14, 2-{[(S)-3-methyl-1-piperidyl]methyl}-4-cyclopropyl-6-(6-cyclopropyl-4-{2-[(3,3-difluoro-1-azetidinyl)carbonyl]-4-fluorophenyl}-2-pyridyl)-1,6-dihydro-1,6-diaza-7-indenone] was tested, and the IC50 [1] was < 100 nM and the EC50 ([2]; Homo sapiens) was < 100 nM.
In the case of `CO[C@@H](C)CN(C)Cc1cc2ncn(-c3cc(-c4ccc(F)cc4C(=O)N4CC(F)(F)C4)cc(C4CC4)n3)c(=O)c2[nH]1` [Example 40, 3-[6-cyclopropyl-4-[2-(3,3-difluoroazetidine-1-carbonyl)-4-fluorophenyl]pyridin-2-yl]-6-[[[(2S)-2-methoxypropyl]-methylamino]methyl]-5H-pyrrolo[3,2-d]pyrimidin-4-one], the IC50 [1] is reported as < 100 nM.
`COCCNCc1cc2ncn(-c3cc(-c4ccc(F)cc4C(=O)N4CC(F)(F)C4)cc(C4CC4)c3)c(=O)c2[nH]1` [Example 42, 6-{5-cyclopropyl-2′-[(3,3-difluoro-1-azetidinyl)carbonyl]-4′-fluoro-3-biphenylyl}-2-[(2-methoxyethylamino)methyl]-1,6-dihydro-1,4,6-triaza-7-indenone] was tested, and the EC50 [2] was < 100 nM.
